Data taken from patent US20240327429A1, “[1,3]Thiazolo[4,5-d]-pyrimidon-7-ones as inhibitors of NOX4” (Boehringer Ingelheim International GmbH, priority 2023, published 2024).

Columns and labels:
human hepatocytes = assay: Evaluation of hepatocyte clearance (metabolic stability); format: in vitro ADME; settings: 1 μM test compound, 5% human serum, Table 3
Method: The metabolic degradation of the test compound is assayed in a hepatocyte suspension. Hepatocytes (cryopreserved) are incubated in Dulbecco's modified eagle medium (supplemented with […] glucagon/500 mL, 2.5 mg insulin/500 mL and 3.75 mg/500 mL hydrocortisone) containing 5% human serum.
Following a 30 min preincubation in an incubator (37° C., 10% CO2) 5 μl of test compound solution (80 μM; from 2 mM in DMSO stock solution diluted 1:25 with medium) are added into 395 μl hepatocyte suspension (cell density in the range 0.25-5 Mio cells/mL, typically 1 Mio cells/mL; final concentration of test compound 1 μM, final DMSO concentration 0.05%).
The cells are incubated for six hours (incubator, orbital shaker) and samples (25 μl) are taken at 0, 0.5, 1, 2, 4 and 6 hours. Samples are transferred into acetonitrile and pelleted by centrifugation (5 min). The supernatant is transferred to a new 96-deepwell plate, evaporated under nitrogen and resuspended.
Decline of Parent Compound is Analyzed by HPLC-MS/MS.
CLint is Calculated as Follows:
CL_[…]=Dose/AUC=(C0/CD)/(AUD+clast/k)×1000/60. • C0: initial concentration in the incubation [μM], CD: cell density of vital cells [10^6 cells/mL], AUD: area under the data [μM×h], clast: concentration of last data point [μM], • k: slope of the regression line for parent decline [h-1].
The calculated in vitro hepatic intrinsic clearance can be scaled up to the intrinsic in vivo hepatic clearance and used to predict hepatic in vivo blood clearance (CL) by the use of a liver model (well stirred model).
CL_[…]_INVIVO[ml/min/kg]=(CL_[…][μL/min/10^6 cells]×hepatocellularity[10^6 cells/g liver]×liver factor[g/kg bodyweight])/1000
CL[ml/min/kg]=CL_[…]_INVIVO[ml/min/kg]×hepatic blood flow[ml/min/kg]/(CL_[…]_INVIVO[ml/min/kg]+hepatic blood flow[ml/min/kg])

human NOX4 (hNOX4) = biological target: T1, human NOX4 (hNOX4) (Homo sapiens, UniProt Q9NPH5); assay: cell-based
T1 sequence (Q9NPH5 1-578): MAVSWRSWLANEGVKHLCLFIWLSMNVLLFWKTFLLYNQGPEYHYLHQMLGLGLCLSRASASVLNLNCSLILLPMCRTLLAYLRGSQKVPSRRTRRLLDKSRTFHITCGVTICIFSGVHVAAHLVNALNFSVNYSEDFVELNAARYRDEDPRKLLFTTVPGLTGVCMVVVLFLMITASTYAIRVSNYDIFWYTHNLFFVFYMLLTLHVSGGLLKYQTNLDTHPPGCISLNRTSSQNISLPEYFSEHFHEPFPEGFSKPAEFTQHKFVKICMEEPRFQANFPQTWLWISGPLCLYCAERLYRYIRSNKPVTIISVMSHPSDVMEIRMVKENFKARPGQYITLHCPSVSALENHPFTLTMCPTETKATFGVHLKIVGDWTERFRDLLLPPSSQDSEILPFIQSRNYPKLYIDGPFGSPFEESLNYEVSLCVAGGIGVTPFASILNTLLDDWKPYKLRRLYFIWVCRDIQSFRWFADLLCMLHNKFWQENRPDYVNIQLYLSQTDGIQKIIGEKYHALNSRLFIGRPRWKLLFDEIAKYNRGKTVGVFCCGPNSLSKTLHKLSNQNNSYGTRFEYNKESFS
T1 sequence (P13498 2-195 partner limits assumed): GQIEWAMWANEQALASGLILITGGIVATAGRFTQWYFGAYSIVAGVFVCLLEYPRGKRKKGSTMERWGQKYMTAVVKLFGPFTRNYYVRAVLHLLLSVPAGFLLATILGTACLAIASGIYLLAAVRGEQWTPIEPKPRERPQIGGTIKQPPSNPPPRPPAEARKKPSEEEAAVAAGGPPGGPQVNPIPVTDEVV
Method: The synthetic gene phNOX4_DNA3_1_Zeo (Accession: AAF68973) is assembled from synthetic oligonucleotides and/or PCR products. The fragment is cloned into pcDNA3.1_Zeo_A011 using NheI and XhoI cloning sites. The plasmid DNA is purified from transformed bacteria and its concentration is determined by UV spectroscopy. The final construct is verified by sequencing. The plasmid is transfected via electroporation (Amaxa electroporation device) in combination with Nucleofector Kit V. Selection of NOX4 overexpressing genes is achieved using selection antibiotic Zeocin.
The inhibitory activity of the example compounds of the invention is determined using the following procedure:
Cells are cultured in the Dulbecco's Modified Eagle Medium (DMEM) media containing 4.5 g/L glucose supplemented with 10% fetal calf serum and 250 μg/ml Zeocin in an incubator at 37° C. with 5% CO2. For the assay, cells are seeded in 384 well plates.
After incubation Lumigen HyPerBlu™ is added and cells are incubated for additional 30 min at 24° C. in a humidified incubator. Next, luminescence is measured using an Envision Multimode Plate reader to determine levels of produced H2O2 in the wells.

SMILES | Qh [%] (human hepatocytes) | IC50 (human NOX4 (hNOX4)) [nM]
N#Cc1cc(-n2c(SCc3c(F)cc(F)cc3F)nc3ncsc3c2=O)cnc1O [Example 47, 2-Hydroxy-5-(7-oxo-5-((2,4,6-trifluorobenzyl)thio)thiazolo[4,5-d]pyrimidin-6(7H)-yl)-nicotinonitrile] | 15 | 426
O=c1c2scnc2nc(SCc2c(F)cc(F)cc2F)n1-c1cnc(O)c(Cl)c1 [Example 48, 6-(5-Chloro-6-hydroxypyridin-3-yl)-5-((2,4,6-trifluorobenzyl)thio)thiazolo[4,5-d]pyri-midin-7(6H)-one] | 22 | 201
O=c1c2scnc2nc(SCc2c(F)cc(F)cc2F)n1-c1cnc(O)cc1F [Example 49, 6-(4-Fluoro-6-hydroxypyridin-3-yl)-5-((2,4,6-trifluorobenzyl)thio)thiazolo[4,5-d]pyrimidin-7(6H)-one] | 25 | 45
O=c1c2scnc2nc(SCc2c(F)cc(F)cc2F)n1-c1ccc(O)nc1F [Example 50, 6-(2-Fluoro-6-hydroxypyridin-3-yl)-5-((2,4,6-trifluorobenzyl)thio)thiazolo[4,5-d]-pyrimidin-7(6H)-one] | 19 | 47
O=c1c2scnc2nc(SCc2c(F)cc(F)cc2F)n1-c1cc(F)c(O)nc1F [Example 51, 6-(2,5-Difluoro-6-hydroxypyridin-3-yl)-5-((2,4,6-trifluorobenzyl)thio)thiazolo[4,5-d]-pyrimidin-7(6H)-one] | 10 | 51
O=c1c2scnc2nc(SCc2c(F)cc(F)cc2F)n1-c1cnc(O)c(F)c1F [Example 52, 6-(4,5-Difluoro-6-hydroxypyridin-3-yl)-5-((2,4,6-trifluorobenzyl)thio)thiazolo[4,5-d]-pyrimidin-7(6H)-one] | 20 | 52
O=c1c2scnc2nc(SCc2ccc(Cl)cc2F)n1-c1cnc(O)nc1 [Example 53, 5-((4-Chloro-2-fluorobenzyl)thio)-6-(2-hydroxypyrimidin-5-yl)thiazolo[4,5-d]pyrimidin-7(6H)-one] | 13 | 116
Cc1cc(Cl)ccc1CSc1nc2ncsc2c(=O)n1-c1cnc(O)nc1 [Example 54] | 33 | 111
Cc1cc(F)cc(C)c1CSc1nc2ncsc2c(=O)n1-c1cnc(O)nc1 [Example 55] | 15 | 116
O=c1c2scnc2nc(SCc2ccc(Cl)cc2)n1-c1cnc(O)nc1 [Example 56] | <4 | 153
O=c1c2scnc2nc(SCc2ccc(C(F)(F)F)cc2F)n1-c1cnc(O)nc1 [Example 57] | 7 | 124
Cc1cc(F)ccc1CSc1nc2ncsc2c(=O)n1-c1cnc(O)nc1 [Example 58] | 19 | 140
O=c1c2scnc2nc(SCc2c(F)cc(F)cc2F)n1-c1cnc(O)nc1 [Example 59] | <4 | 206
O=c1c2scnc2nc(SCc2ccc(C(F)(F)F)cc2)n1-c1cnc(O)nc1 [Example 60] | 8 | 237
O=c1c2scnc2nc(SCc2ccc(Cl)cc2F)n1-c1ccc(O)nn1 [Example 61, 5-((4-Chloro-2-fluorobenzyl)thio)-6-(6-hydroxypyridazin-3-yl)thiazolo[4,5-d]pyrimidin-7(6H)-one] | 55 | 103
Cc1cc(Cl)ccc1CSc1nc2ncsc2c(=O)n1-c1ccc(O)nn1 [Example 62] | 58 | 127
O=c1c2scnc2nc(SCc2ccc(Cl)cc2)n1-c1ccc(O)nn1 [Example 64] | 47 | 133
O=c1c2scnc2nc(SCc2ccc(C(F)(F)F)cc2F)n1-c1ccc(O)nn1 [Example 65] | 50 | 137
O=c1c2scnc2nc(SCc2ccc(C(F)(F)F)cc2)n1-c1ccc(O)nn1 [Example 66] | 40 | 137
O=c1c2scnc2nc(SCc2c(F)cc(F)cc2F)n1-c1ccc(O)nn1 [Example 67] | 37 | 165
O=c1c2scnc2nc(SCc2c(F)cc(F)cc2F)n1-c1cnc(O)cn1 [Example 69, 6-(5-Hydroxypyrazin-2-yl)-5-((2,4,6-trifluorobenzyl)thio)thiazolo[4,5-d]pyrimidin-7(6H)-one] | <4 | 65
